Test results from article PMC12621043, “Un-LOK-ing a New Approach for Conformational Selective Targeting of STK10 (LOK)” (ACS Medicinal Chemistry Letters, 2025).

How the values were obtained:
Test in all cases: DSF Tm panel
Format in all cases: binding
Details in all cases: 10 μM compound
RIOK1A = target: T1, RIOK1A (Homo sapiens, UniProt Q9BRS2)
T1 construct: purchased in-house DSF kinase panel (SGC-style construct names; the trailing letter is the construct ID)
T1 sequence (Q9BRS2 143-494): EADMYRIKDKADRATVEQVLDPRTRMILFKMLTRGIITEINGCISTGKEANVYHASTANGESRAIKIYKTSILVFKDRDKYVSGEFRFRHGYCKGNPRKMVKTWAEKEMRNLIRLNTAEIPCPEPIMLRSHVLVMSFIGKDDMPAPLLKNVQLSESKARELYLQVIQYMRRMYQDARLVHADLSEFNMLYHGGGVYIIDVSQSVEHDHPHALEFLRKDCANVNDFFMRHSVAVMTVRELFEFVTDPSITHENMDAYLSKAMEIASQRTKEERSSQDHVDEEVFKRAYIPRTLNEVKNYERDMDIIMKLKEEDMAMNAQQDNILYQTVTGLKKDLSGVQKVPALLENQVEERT

BRPF1B = target: T2, BRPF1B (Homo sapiens, UniProt P55201)
T2 construct: purchased in-house DSF kinase panel (SGC-style construct names; the trailing letter is the construct ID)
T2 sequence (P55201 1-1214): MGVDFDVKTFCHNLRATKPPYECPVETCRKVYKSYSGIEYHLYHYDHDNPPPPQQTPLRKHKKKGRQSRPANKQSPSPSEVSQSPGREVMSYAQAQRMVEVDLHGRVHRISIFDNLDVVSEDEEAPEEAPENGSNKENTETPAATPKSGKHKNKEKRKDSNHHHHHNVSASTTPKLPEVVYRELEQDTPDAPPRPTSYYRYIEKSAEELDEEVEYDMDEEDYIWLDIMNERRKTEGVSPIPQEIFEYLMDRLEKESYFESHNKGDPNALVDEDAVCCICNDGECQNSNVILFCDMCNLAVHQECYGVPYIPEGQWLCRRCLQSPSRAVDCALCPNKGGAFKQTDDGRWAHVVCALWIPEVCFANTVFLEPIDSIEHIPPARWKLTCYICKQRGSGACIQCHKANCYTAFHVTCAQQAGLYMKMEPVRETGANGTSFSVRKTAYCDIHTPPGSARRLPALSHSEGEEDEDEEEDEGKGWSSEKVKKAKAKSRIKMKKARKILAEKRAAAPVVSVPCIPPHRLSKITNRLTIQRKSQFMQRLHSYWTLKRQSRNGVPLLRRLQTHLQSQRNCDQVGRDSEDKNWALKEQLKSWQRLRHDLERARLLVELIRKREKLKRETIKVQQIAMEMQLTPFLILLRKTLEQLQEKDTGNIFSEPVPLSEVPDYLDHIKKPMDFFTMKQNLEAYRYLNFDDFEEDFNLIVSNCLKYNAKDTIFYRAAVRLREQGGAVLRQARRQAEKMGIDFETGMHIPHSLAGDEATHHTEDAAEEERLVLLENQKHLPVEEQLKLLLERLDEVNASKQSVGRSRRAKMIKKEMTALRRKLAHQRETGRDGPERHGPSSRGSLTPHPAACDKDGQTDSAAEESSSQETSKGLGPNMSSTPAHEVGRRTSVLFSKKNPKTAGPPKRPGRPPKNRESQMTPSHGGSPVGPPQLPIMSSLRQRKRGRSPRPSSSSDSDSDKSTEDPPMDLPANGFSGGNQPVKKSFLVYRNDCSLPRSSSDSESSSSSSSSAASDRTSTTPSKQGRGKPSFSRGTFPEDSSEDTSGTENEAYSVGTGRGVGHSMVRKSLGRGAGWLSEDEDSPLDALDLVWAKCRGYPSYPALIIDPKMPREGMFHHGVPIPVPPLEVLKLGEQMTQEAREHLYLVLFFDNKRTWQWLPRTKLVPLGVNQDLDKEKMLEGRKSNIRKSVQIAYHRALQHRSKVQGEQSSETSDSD

CSNK1EA = target: T3, CSNK1EA (Homo sapiens, UniProt P49674)
T3 construct: purchased in-house DSF kinase panel (SGC-style construct names; the trailing letter is the construct ID)
T3 sequence (P49674 1-294): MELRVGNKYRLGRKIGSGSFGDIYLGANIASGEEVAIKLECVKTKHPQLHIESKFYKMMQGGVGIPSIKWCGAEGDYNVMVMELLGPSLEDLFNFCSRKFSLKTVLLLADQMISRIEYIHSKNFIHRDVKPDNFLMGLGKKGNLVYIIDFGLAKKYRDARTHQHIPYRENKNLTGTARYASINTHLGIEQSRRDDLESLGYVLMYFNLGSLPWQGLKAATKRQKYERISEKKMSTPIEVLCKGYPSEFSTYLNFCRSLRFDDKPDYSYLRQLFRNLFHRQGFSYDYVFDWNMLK

NQO2A = target: T4, NQO2A (Homo sapiens, UniProt P16083)
T4 construct: purchased in-house DSF kinase panel (SGC-style construct names; the trailing letter is the construct ID)
T4 sequence (P16083 1-231): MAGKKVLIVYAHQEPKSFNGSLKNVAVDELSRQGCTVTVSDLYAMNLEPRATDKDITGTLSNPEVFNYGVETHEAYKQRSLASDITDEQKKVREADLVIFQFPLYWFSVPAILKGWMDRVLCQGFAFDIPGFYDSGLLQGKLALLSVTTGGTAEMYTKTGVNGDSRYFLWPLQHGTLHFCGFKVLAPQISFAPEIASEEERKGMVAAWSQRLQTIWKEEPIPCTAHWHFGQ

O=C(NCc1ccccc1)Nc1ccc2cc1OCCOCCNc1ccn3ncc-2c3n1 [compound 16]
ΔTm at 10 µM (RIOK1A): 0.1 °C

O=C(NCc1ccccc1Cl)Nc1ccc2cc1OCCOCCNc1ccn3ncc-2c3n1 [compound 17]
ΔTm at 10 µM (RIOK1A): 0.5 °C

O=C(NCc1cccc(Cl)c1)Nc1ccc2cc1OCCOCCNc1ccn3ncc-2c3n1 [compound 18]
ΔTm at 10 µM (RIOK1A): 1.4 °C

O=C(NCc1ccc(Cl)cc1)Nc1ccc2cc1OCCOCCNc1ccn3ncc-2c3n1 [compound 19]
ΔTm at 10 µM (RIOK1A): 1.1 °C

O=C(NCc1ccc(Cl)cc1Cl)Nc1ccc2cc1OCCOCCNc1ccn3ncc-2c3n1 [compound 20]
ΔTm at 10 µM (RIOK1A): 1.9 °C

O=C(NCc1ccc(Cl)cc1F)Nc1ccc2cc1OCCOCCNc1ccn3ncc-2c3n1 [compound 21]
ΔTm at 10 µM (RIOK1A): -0.1 °C

Cc1cc(Cl)ccc1CNC(=O)Nc1ccc2cc1OCCOCCNc1ccn3ncc-2c3n1 [compound 23]
ΔTm at 10 µM (RIOK1A): 0.6 °C

Cc1cc(Br)ccc1CNC(=O)Nc1ccc2cc1OCCOCCNc1ccn3ncc-2c3n1 [compound 24]
ΔTm at 10 µM (BRPF1B): 1.6 °C | ΔTm at 10 µM (CSNK1EA): 0.7 °C | ΔTm at 10 µM (NQO2A): -1.9 °C

Cc1ccc(F)cc1CNC(=O)Nc1ccc2cc1OCCOCCNc1ccn3ncc-2c3n1 [compound 26]
ΔTm at 10 µM (BRPF1B): 1 °C | ΔTm at 10 µM (CSNK1EA): 0.7 °C | ΔTm at 10 µM (NQO2A): -1.5 °C

O=C(NCc1ccccc1C(F)(F)F)Nc1ccc2cc1OCCOCCNc1ccn3ncc-2c3n1 [compound 27]
ΔTm at 10 µM (BRPF1B): 1.9 °C | ΔTm at 10 µM (CSNK1EA): 0 °C | ΔTm at 10 µM (NQO2A): -4.1 °C

O=C(NCc1ccc(C(F)(F)F)cc1)Nc1ccc2cc1OCCOCCNc1ccn3ncc-2c3n1 [compound 28]
ΔTm at 10 µM (BRPF1B): 2.2 °C | ΔTm at 10 µM (CSNK1EA): -0.2 °C | ΔTm at 10 µM (NQO2A): -2.7 °C

COc1ccccc1CNC(=O)Nc1ccc2cc1OCCOCCNc1ccn3ncc-2c3n1 [compound 29]
ΔTm at 10 µM (BRPF1B): -0.1 °C | ΔTm at 10 µM (CSNK1EA): 0.7 °C | ΔTm at 10 µM (NQO2A): -0.5 °C

COc1cccc(CNC(=O)Nc2ccc3cc2OCCOCCNc2ccn4ncc-3c4n2)c1 [compound 30]
ΔTm at 10 µM (BRPF1B): 0.2 °C | ΔTm at 10 µM (CSNK1EA): 0.7 °C | ΔTm at 10 µM (NQO2A): -0.5 °C

COc1ccc(CNC(=O)Nc2ccc3cc2OCCOCCNc2ccn4ncc-3c4n2)cc1 [compound 31]
ΔTm at 10 µM (BRPF1B): 1 °C | ΔTm at 10 µM (CSNK1EA): 0.6 °C | ΔTm at 10 µM (NQO2A): -0.6 °C

COc1ccc(CNC(=O)Nc2ccc3cc2OCCOCCNc2ccn4ncc-3c4n2)cc1F [compound 32]
ΔTm at 10 µM (BRPF1B): 1.5 °C | ΔTm at 10 µM (CSNK1EA): 0.3 °C | ΔTm at 10 µM (NQO2A): -2.8 °C

COc1cc(CNC(=O)Nc2ccc3cc2OCCOCCNc2ccn4ncc-3c4n2)ccc1F [compound 33]
ΔTm at 10 µM (BRPF1B): 1.2 °C | ΔTm at 10 µM (CSNK1EA): 0.6 °C | ΔTm at 10 µM (NQO2A): -1.5 °C

C[C@H](NC(=O)Nc1ccc2cc1OCCOCCNc1ccn3ncc-2c3n1)c1ccccc1 [compound 34]
ΔTm at 10 µM (BRPF1B): 0.5 °C | ΔTm at 10 µM (CSNK1EA): 0.4 °C | ΔTm at 10 µM (NQO2A): -0.5 °C

CN1CCN(C(=O)Nc2ccc3cc2OCCOCCNc2ccn4ncc-3c4n2)CC1 [compound 35]
ΔTm at 10 µM (RIOK1A): 1.2 °C
